Assay results from US7276519B2, “Thieno[3,2-b]pyridine-6-carbonitriles and thieno[2,3-b]pyridine-5-carbonitriles as protein kinase inhibitors” (Wyeth, priority 2002, dated 2007).

Tests used:
[1] = tested on: Rat2 fibroblasts stably transformed with v-Src/Hu c-Src fusion gene; test: Anchorage independent Src-transformed fibroblast proliferation assay; assay type: cell-based, rat; conditions: for IC50: Rat2, 120 h, suspension growth, MTS readout Day 5, read-out: Src cells IC50; for inhibition at 10 µM: read-out: Src cells % inh at 10 μM
Description: Anchorage Independent Src-Transformed Fibroblast Proliferation Assay Rat2 fibroblasts stably transformed with a plasmid containing a CMV promotor controlled v-Src/Hu c-Src fusion gene in which the catalytic domain of human c-Src was inserted in place of the v-Src catalytic domain in the v-Src gene are used for the measurement of src dependent suspension growth. […] Multiple entries for a given compound indicate that it was tested multiple times.

[2] = Rattus norvegicus, Rat2, Table 1

**Q.** With `COc1cc(Nc2c(C#N)cnc3sc(-c4ccc(CN5CCOCC5)cc4)cc23)c(Cl)cc1Cl` as the compound, how does the melting point read?
**A.** 106 to 108 °C

**Q.** Which melting point does the source give for `COc1cc(Nc2c(C#N)cnc3cc(C#CCN4CCN(C)CC4)sc23)c(Cl)cc1Cl` here?
**A.** 172 to 173 °C

**Q.** Which IC50 ([1]; Rattus norvegicus, Table 1) does the source give for `COc1cc(Nc2c(C#N)cnc3cc(I)sc23)c(Cl)cc1Cl` [Example 4, 7-[(2,4-Dichloro-5-methoxyphenyl)amino]-2-iodothieno[3,2-b]pyridine-6-carbonitrile] here?
**A.** 3.1 µM

**Q.** And the melting point?
**A.** 233 to 234 °C

**Q.** Which results are given for `COc1cc(Nc2c(C#N)cnc3sccc23)c(Cl)cc1Cl` [Example 5, 4-[(2,4-Dichloro-5-methoxyphenyl)amino]thieno[2,3-b]pyridine-5-carbonitrile]?
**A.** IC50 ([1]; Rattus norvegicus, Table 1): 5.6 µM; melting point: 197 to 199 °C

**Q.** For `Cn1ccnc1Sc1ccc(Nc2c(C#N)cnc3sccc23)cc1Cl` [Example 6, 4-[(3-Chloro-4-[(1-methyl-1H-imidazol-2-yl)thio]phenyl)amino]thieno[2,3-b]pyridine-5-carbonitrile], which inhibition at 100 µM ([1]; Rattus norvegicus, Rat2, Table 1, at 100 μM, read-out: Src cells % inh at 100 μM) is on record?
**A.** 3%

**Q.** What about the melting point of the same compound?
**A.** > 240 °C

**Q.** With `COc1cc(Nc2c(C#N)cnc3sc(I)cc23)c(Cl)cc1Cl` [Example 7, 4-[(2,4-Dichloro-5-methoxyphenyl)amino]-2-iodothieno[2,3-b]pyridine-5-carbonitrile] as the compound, how does the inhibition at 10 µM [1, 2] read?
**A.** 31%

**Q.** What about the melting point of the same compound?
**A.** 231 to 233 °C

**Q.** With `COc1cc(Nc2c(C#N)cnc3sc(C)cc23)c(Cl)cc1Cl` [Example 8, 4-[(2,4-Dichloro-5-methoxyphenyl)amino]-2-methylthieno[2,3-b]pyridine-5-carbonitrile] as the compound, how does the inhibition at 10 µM [1, 2] read?
**A.** 33%

**Q.** What about the melting point of the same compound?
**A.** 179 to 181 °C

**Q.** With `COc1cc(Nc2c(C#N)cnc3cc(C)sc23)c(Cl)cc1Cl` [Example 9, 7-[(2,4-Dichloro-5-methoxyphenyl)amino]-2-methylthieno[3,2-b]pyridine-6-carbonitrile] as the compound, how does the IC50 ([1]; Rattus norvegicus, Table 1) read?
**A.** 20 µM

**Q.** And the melting point?
**A.** 213 to 214 °C

**Q.** For `N#Cc1cnc2ccsc2c1Nc1ccc(Cl)cc1Cl` [Example 10, 7-[(2,4-Dichlorophenyl)amino]thieno[3,2-b]pyridine-6-carbonitrile], which IC50 ([1]; Rattus norvegicus, Table 1) is on record?
**A.** 39 µM

**Q.** And the melting point?
**A.** 198 to 200 °C

**Q.** Which results are given for `N#Cc1cnc2ccsc2c1Oc1ccc(Cl)cc1Cl` [Example 11, 7-[(2,4-Dichlorophenoxy)]thieno[3,2-b]pyridine-6-carbonitrile]?
**A.** IC50 ([1]; Rattus norvegicus, Table 1): 23 µM; melting point: 158 to 160 °C

**Q.** For `N#Cc1cnc2ccsc2c1Sc1ccc(Cl)cc1Cl` [Example 12, 7-[(2,4-Dichlorophenyl)thio]thieno[3,2-b]pyridine-6-carbonitrile], which inhibition at 10 µM [1, 2] is on record?
**A.** 23%

**Q.** And the melting point?
**A.** 126 to 128 °C

**Q.** Which results are given for `N#Cc1cnc2ccsc2c1NCc1ccc(Cl)cc1Cl` [Example 13, 7-[(2,4-Dichlorobenzyl)amino]thieno[3,2-b]pyridine-6-carbonitrile]?
**A.** inhibition at 10 µM [1, 2]: 34%; melting point: 215 to 216 °C

**Q.** For `COc1cc(Nc2c(C#N)cnc3cc(-c4ccc(C=O)cc4)sc23)c(Cl)cc1Cl` [Example 14, 7-[(2,4-Dichloro-5-methoxyphenyl)amino]-2-(4-formylphenyl)thieno[3,2-b]pyridine-6-carbonitrile], which IC50 ([1]; Rattus norvegicus, Table 1) is on record?
**A.** 0.66 µM

**Q.** What about the melting point of the same compound?
**A.** 261 to 262 °C

**Q.** With `COc1cc(Nc2c(C#N)cnc3cc(-c4ccc(CN5CCN(C)CC5)cc4)sc23)c(Cl)cc1Cl` [Example 16, 7-[(2,4-Dichloro-5-methoxyphenyl)amino]-2-[4-(4-methylpiperazin-1-ylmethyl)phenyl]thieno[3,2-b]pyridine-6-carbonitrile] as the compound, how does the melting point read?
**A.** 226 to 228 °C

**Q.** With `COc1cc(Nc2c(C#N)cnc3cc(-c4ccc(CN5CCCCC5)cc4)sc23)c(Cl)cc1Cl` [Example 18, 7-[(2,4-Dichloro-5-methoxyphenyl)amino]-2-[4-(piperidin-1-ylmethyl)phenyl]thieno[3,2-b]pyridine-6-carbonitrile] as the compound, how does the IC50 ([1]; Rattus norvegicus, Table 1) read?
**A.** 1 µM

**Q.** And the melting point?
**A.** 218 to 220 °C

**Q.** For `COC(=O)CCCc1cc2c(Nc3cc(OC)c(OC)c(OC)c3)c(C#N)cnc2s1` [Example 29, 4-[5-Cyano-4-(3,4,5-trimethoxyphenylamino)-thieno[2,3-b]pyridin-2-yl]-butyric acid methyl ester], which melting point is on record?
**A.** 101 to 103 °C

**Q.** For `COc1cc(Nc2c(C#N)cnc3sc(CCCCN4CCOCC4)cc23)cc(OC)c1OC` [Example 31, 2-[4-(4-Morpholinyl)butyl]-4-[(3,4,5-trimethoxyphenyl)amino]-thieno[2,3-b]pyridine-5-carbonitrile], which IC50 ([1]; Rattus norvegicus, Table 1) is on record?
**A.** 35 µM

**Q.** For `COc1cc(Nc2c(C#N)cnc3cc(/C=C/C(=O)O)sc23)c(Cl)cc1Cl` [Example 53, (2E)-3-(6-Cyano-7-[(2,4-dichloro-5-methoxyphenyl)amino]thieno[3,2-b]pyridin-2-yl)prop-2-enoate], which “Src cells % inh at 100 μM” value ([1]; Table 1, at 100 μM) is on record?
**A.** 45%

**Q.** Which melting point does the source give for `COc1cc(N(C(C)=O)c2c(C#N)cnc3ccsc23)c(Cl)cc1Cl` [Example 63, N-(6-Cyanothieno[3,2-b]pyridin-7-yl)-N-(2,4-dichloro-5-methoxyphenyl)acetamide] here?
**A.** 202 to 204 °C

**Q.** Which melting point does the source give for `COc1cc(Nc2c(C#N)cnc3cc(-c4ccsc4C=O)sc23)c(Cl)cc1Cl` [Example 78, 7-[(2,4-dichloro-5-methoxyphenyl)amino]-2-(2-formylthien-3-yl)thieno[3,2-b]pyridine-6-carbonitrile] here?
**A.** 128 to 130 °C

**Q.** With `Cn1ccnc1Sc1ccc(Nc2c(C#N)cnc3cc(I)sc23)cc1Cl` [Example 82, 7-({3-chloro-4-[(1-methyl-1H-imidazol-2-yl)thio]phenyl}amino)-2-iodothieno[3,2-b]pyridine-6-carbonitrile] as the compound, how does the melting point read?
**A.** 290 to 291 °C

**Q.** For `Cn1ccnc1Sc1ccc(Nc2c(C#N)cnc3cc(-c4ccc(C=O)cc4)sc23)cc1Cl` [Example 97, 7-({3-chloro-4-[(1-methyl-1H-imidazol-2-yl)thio]phenyl}amino)-2-(4-formylphenyl)thieno[3,2-b]pyridine-6-carbonitrile], which melting point is on record?
**A.** 279 to 281 °C

**Q.** Which melting point does the source give for `N#Cc1cnc2cc(I)sc2c1Nc1ccc(Cl)cc1Cl` [Example 102, 7-[(2,4-dichlorophenyl)amino]-2-iodothieno[3,2-b]pyridine-6-carbonitrile] here?
**A.** 230 to 233 °C

**Q.** For `CCOc1cc(Nc2c(C#N)cnc3cc(I)sc23)c(Cl)cc1Cl` [Example 110, 7-[(2,4-dichloro-5-ethoxyphenyl)amino]-2-iodothieno[3,2-b]pyridine-6-carbonitrile], which melting point is on record?
**A.** 232 to 233 °C

**Q.** Which melting point does the source give for `N#Cc1cnc2cc(-c3ccc(C=O)cc3)sc2c1Nc1ccc(Cl)cc1Cl` [Example 115, 7-[(2,4-dichlorophenyl)amino]-2-(4-formylphenyl)thieno[3,2-b]pyridine-6-carbonitrile] here?
**A.** 170 to 171 °C

**Q.** With `CN(C)c1ccc(-c2cc3ncc(C#N)c(Nc4ccc(Cl)cc4Cl)c3s2)cc1` [Example 126, 7-[(2,4-dichlorophenyl)amino]-2-[4-(dimethylamino)phenyl]thieno[3,2-b]pyridine-6-carbonitrile] as the compound, how does the melting point read?
**A.** 239 to 241 °C

**Q.** With `COc1cc(Nc2c(C#N)cnc3cc(-c4coc(C=O)c4)sc23)c(Cl)cc1Cl` [Example 138, 7-[(2,4-dichloro-5-methoxyphenyl)amino]-2-(5-formyl-3-furyl)thieno[3,2-b]pyridine-6-carbonitrile] as the compound, how does the melting point read?
**A.** 223 to 224 °C

**Q.** For `COc1cc(Nc2c(C#N)cnc3c(Br)csc23)c(Cl)cc1Cl` [Example 139, 3-Bromo-7-[(2,4-dichloro-5-methoxyphenyl)amino]thieno[3,2-b]pyridine-6-carbonitrile], which melting point is on record?
**A.** 265 to 266 °C
